Values belong to the compound of their own block, whether it stands above or below them. Active and inactive are the calls of the source. The rule behind the calls is not given here.
Experiments:
[1] = target: T1, Cyclin-dependent kinase 9 (Homo sapiens, UniProt P50750); experiment: Induction of HyT-mediated degradation of CDK9 in human 22Rv1 cells at 0.3 to 3 uM incubated for 24 hrs by immunoblot analysis; assay type: cell-based; settings: dose 0.3-3 µM
Cyclin-T1 [2] = target: T2, Cyclin-T1 (Homo sapiens, UniProt O60563); experiment: Induction of HyT-mediated degradation of Cyclin T1 in human 22Rv1 cells at 0.3 to 3 uM incubated for 24 hrs by immunoblot analysis; assay type: cell-based; settings: dose 0.3-3 µM
T2 sequence (O60563 whole entry): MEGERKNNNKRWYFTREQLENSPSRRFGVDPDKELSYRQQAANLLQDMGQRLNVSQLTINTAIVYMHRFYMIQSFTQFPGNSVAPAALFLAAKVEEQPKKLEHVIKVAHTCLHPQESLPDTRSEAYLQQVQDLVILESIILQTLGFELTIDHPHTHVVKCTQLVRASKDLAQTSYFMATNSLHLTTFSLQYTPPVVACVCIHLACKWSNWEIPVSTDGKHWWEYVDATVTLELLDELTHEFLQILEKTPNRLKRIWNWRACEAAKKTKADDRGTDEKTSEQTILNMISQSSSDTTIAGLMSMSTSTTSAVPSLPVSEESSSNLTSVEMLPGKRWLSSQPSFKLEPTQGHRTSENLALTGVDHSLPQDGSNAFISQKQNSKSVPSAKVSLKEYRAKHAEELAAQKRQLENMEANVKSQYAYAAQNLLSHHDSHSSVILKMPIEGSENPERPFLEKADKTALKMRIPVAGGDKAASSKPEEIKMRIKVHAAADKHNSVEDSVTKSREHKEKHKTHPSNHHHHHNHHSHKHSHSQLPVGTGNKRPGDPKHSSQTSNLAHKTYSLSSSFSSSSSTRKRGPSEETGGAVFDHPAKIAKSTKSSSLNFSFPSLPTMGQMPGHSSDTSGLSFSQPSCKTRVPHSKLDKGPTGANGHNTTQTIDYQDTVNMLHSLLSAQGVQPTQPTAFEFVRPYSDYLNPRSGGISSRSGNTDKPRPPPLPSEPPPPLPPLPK

Cyclin-T1 [3] = target: T2, Cyclin-T1; experiment: Induction of HyT-mediated degradation of Cyclin T1 in human 22Rv1 cells at 3 uM incubated for 24 hrs by immunoblot analysis relative to control; assay type: cell-based
[4] = target: T1, Cyclin-dependent kinase 9; experiment: Induction of HyT-mediated degradation of CDK9 in human 22Rv1 cells at 3 uM incubated for 24 hrs by immunoblot analysis relative to control; assay type: cell-based
Cyclin-T1 [5] = target: T2, Cyclin-T1; experiment: Induction of HyT-mediated degradation of Cyclin T1 in human 22Rv1 cells assessed as reduction in Cyclin T1 level at 3 uM incubated for 24 hrs by immunoblot analysis; assay type: cell-based
CWR22R [6] = experiment: Downregulation of cyclin D1 protein expression in human 22Rv1 cells at 2 uM incubated for 24 hrs by DIA-based proteomics analysis; assay type: functional, cell-based
CWR22R [7] = experiment: Upregulation of […] protein expression in human 22Rv1 cells at 2 uM incubated for 24 hrs by DIA-based proteomics analysis; assay type: functional, cell-based
CWR22R [8] = experiment: Antiproliferative activity against human 22Rv1 cells assessed as reduction in cell viability measured after 5 days by CellTiter-Glo assay; assay type: functional, cell-based; settings: 22Rv1, 120 h
CWR22R [9] = experiment: Induction of cell cycle arrest in human 22Rv1 cells assessed as accumulation of cells at G1 phase at 0.3 to 1 uM incubated for 24 hrs by propidium iodide staining based flow cytometry; assay type: functional; settings: dose 0.3-1 µM
CWR22R [10] = experiment: Induction of cell cycle arrest in human 22Rv1 cells assessed as accumulation of cells at sub-G1 phase at 0.3 to 1 uM incubated for 24 hrs by propidium iodide staining based flow cytometry; assay type: functional; settings: dose 0.3-1 µM
CWR22R [11] = experiment: Induction of apoptosis in human 22Rv1 cells at 0.3 to 1 uM incubated for 24 hrs by AnnexinV-FITC/PI staining based flow cytometry; assay type: functional, cell-based; settings: dose 0.3-1 µM
[12] = target: T1, Cyclin-dependent kinase 9; experiment: Induction of HyT-mediated degradation of CDK9 in human 22Rv1 cells assessed as reduction in CDK9 protein level at 3 uM incubated for 24 hrs by immunoblot analysis relative to control; assay type: cell-based; design: scale not given: the % may be the effect or the level left
[13] = target: T1, Cyclin-dependent kinase 9; experiment: Induction of CDK9 degradation in human 22Rv1 cells at 3 uM incubated for 24 hrs by DIA-based proteomics analysis; assay type: cell-based
Cyclin-T1 [14] = target: T2, Cyclin-T1; experiment: Induction of Cyclin T1 degradation in human 22Rv1 cells assessed as cyclin T1 level at 3 uM incubated for 24 hrs by DIA-based proteomics analysis; assay type: cell-based
CWR22R [15] = experiment: Downregulation of CCNT1 mRNA expression in human 22Rv1 cells at 2 uM incubated for 24 hrs by transcriptome RNA-seq analysis; assay type: functional, cell-based
[16] = target: T1, Cyclin-dependent kinase 9; experiment: Induction of degradation of CDK9 in human 22Rv1 cells at 3 uM measured for 36 hrs by DIA-based proteomics analysis; assay type: cell-based
[17] = target: T1, Cyclin-dependent kinase 9; experiment: Induction of degradation of CDK9 in human 22Rv1 cells at 2 uM measured after 0 to 7 hrs by immunoblot analysis; assay type: cell-based; settings: time 0-7 hrs
[18] = target: T1, Cyclin-dependent kinase 9; experiment: Induction of degradation of CDK9 in human 22Rv1 cells assessed as reduction in CDK9 level at 2 uM measured after 9 hrs by immunoblot analysis; assay type: cell-based
[19] = target: Cyclin-dependent kinase 1 (Homo sapiens) (UniProt P06493); experiment: Induction of CDK1 degradation in human 22Rv1 cells assessed as downregulation of CDK1 level at 3 uM measured after 12 hrs by DIA-based proteomics analysis; assay type: cell-based
Chain of Cyclin-dependent kinase 1 (Homo sapiens) (P06493 whole entry, looked up): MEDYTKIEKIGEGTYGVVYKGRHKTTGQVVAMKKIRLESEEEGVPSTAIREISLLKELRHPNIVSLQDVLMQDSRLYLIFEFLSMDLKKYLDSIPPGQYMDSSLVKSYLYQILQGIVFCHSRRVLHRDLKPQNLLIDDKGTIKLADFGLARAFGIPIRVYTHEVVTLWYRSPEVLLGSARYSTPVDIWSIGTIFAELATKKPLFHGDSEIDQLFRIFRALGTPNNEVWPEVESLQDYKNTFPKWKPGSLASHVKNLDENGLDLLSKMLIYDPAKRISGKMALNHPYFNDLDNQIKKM

[20] = target: Cyclin-dependent kinase 4 (Homo sapiens) (UniProt P11802); experiment: Induction of CDK4 degradation in human 22Rv1 cells assessed as downregulation of CDK4 level at 3 uM measured after 12 hrs by DIA-based proteomics analysis; assay type: cell-based
Chain of Cyclin-dependent kinase 4 (Homo sapiens) (P11802 whole entry): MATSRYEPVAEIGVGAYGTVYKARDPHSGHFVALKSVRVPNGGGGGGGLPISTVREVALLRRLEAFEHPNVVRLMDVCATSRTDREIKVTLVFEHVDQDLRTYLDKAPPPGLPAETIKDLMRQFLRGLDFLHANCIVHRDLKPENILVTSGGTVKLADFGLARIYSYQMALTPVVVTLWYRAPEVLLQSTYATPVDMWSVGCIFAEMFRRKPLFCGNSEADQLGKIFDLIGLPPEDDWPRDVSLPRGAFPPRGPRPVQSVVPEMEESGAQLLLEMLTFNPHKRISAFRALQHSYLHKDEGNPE

[21] = target: Cyclin-dependent kinase 6 (Homo sapiens) (UniProt Q00534); experiment: Induction of CDK6 degradation in human 22Rv1 cells assessed as downregulation of CDK6 level at 3 uM measured after 12 hrs by DIA-based proteomics analysis; assay type: cell-based
Chain of Cyclin-dependent kinase 6 (Homo sapiens) (Q00534 whole entry): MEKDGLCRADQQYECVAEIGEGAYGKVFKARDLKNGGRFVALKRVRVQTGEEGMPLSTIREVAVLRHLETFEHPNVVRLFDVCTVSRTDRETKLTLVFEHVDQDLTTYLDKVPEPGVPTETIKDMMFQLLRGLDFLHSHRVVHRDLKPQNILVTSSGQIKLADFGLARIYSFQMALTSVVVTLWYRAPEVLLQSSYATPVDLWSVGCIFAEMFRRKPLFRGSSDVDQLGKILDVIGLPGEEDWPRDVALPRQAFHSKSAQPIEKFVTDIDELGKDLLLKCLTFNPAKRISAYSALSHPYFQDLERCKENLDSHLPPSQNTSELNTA

[22] = target: Cyclin-dependent kinase 7 (Homo sapiens) (UniProt P50613); experiment: Induction of CDK7 degradation in human 22Rv1 cells assessed as downregulation of CDK7 level at 3 uM measured after 12 hrs by DIA-based proteomics analysis; assay type: cell-based
Chain of Cyclin-dependent kinase 7 (Homo sapiens) (P50613 whole entry): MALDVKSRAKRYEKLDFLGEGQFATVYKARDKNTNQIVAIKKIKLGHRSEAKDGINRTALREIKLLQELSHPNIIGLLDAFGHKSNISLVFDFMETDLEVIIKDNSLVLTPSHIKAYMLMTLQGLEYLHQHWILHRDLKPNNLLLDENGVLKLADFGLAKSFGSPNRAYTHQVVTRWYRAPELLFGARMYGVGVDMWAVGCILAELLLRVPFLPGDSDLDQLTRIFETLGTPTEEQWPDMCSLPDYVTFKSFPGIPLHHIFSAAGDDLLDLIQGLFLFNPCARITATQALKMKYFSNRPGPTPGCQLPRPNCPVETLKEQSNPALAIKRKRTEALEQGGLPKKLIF

[23] = target: Cyclin-dependent kinase 11B (Homo sapiens) (UniProt P21127); experiment: Induction of CDK11B degradation in human 22Rv1 cells at 3 uM measured after 36 hrs by DIA-based proteomics analysis; assay type: cell-based
Chain of Cyclin-dependent kinase 11B (Homo sapiens) (P21127 whole entry): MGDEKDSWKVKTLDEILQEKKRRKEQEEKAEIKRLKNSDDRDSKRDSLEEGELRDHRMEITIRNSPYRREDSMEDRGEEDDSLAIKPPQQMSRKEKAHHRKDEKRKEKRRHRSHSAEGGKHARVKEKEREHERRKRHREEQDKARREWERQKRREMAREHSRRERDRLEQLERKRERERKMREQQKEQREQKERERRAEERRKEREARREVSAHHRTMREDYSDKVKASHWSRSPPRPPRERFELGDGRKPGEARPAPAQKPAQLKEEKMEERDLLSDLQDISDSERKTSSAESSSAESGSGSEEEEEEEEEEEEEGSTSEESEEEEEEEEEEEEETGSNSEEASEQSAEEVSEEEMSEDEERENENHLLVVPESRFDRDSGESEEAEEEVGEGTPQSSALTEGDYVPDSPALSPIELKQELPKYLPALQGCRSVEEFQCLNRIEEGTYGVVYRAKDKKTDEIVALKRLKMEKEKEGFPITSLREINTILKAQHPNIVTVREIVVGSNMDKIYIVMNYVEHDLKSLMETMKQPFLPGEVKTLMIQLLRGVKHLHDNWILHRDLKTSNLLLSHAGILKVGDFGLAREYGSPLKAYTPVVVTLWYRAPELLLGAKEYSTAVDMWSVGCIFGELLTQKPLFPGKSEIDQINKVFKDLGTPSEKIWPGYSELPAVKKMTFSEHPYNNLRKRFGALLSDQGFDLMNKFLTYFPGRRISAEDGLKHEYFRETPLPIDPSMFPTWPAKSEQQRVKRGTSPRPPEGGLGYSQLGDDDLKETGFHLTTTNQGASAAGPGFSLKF

Cyclin-T1 [24] = target: T2, Cyclin-T1; experiment: Induction of degradation of Cyclin T1 in human 22Rv1 cells at 3 uM measured for 36 hrs by DIA-based proteomics analysis; assay type: cell-based
CWR22R [25] = experiment: Inhibition of colony formation in human 22Rv1 cells at 100 to 200 nM treated for 14 days with replacement with fresh medium containing compound for every 48 hrs by crystal violet staining based analysis; assay type: functional, cell-based; settings: dose 100-200 nM, time 14.0 day
[26] = target: T1, Cyclin-dependent kinase 9; experiment: Induction of CDK9 degradation in human 22Rv1 cells assessed as decrease in cyclin A2 protein expression at 3 uM measured for 36 hrs by DIA-based proteomics analysis; assay type: cell-based
[27] = target: T1, Cyclin-dependent kinase 9; experiment: Induction of CDK9 degradation in human 22Rv1 cells assessed as decrease in cyclin B1 protein expression at 3 uM measured for 36 hrs by DIA-based proteomics analysis; assay type: cell-based
[28] = target: T1, Cyclin-dependent kinase 9; experiment: Induction of CDK9 degradation in human 22Rv1 cells assessed as decrease in cyclin D1 protein expression at 3 uM measured for 36 hrs by DIA-based proteomics analysis; assay type: cell-based
[29] = target: T1, Cyclin-dependent kinase 9; experiment: Induction of CDK9 degradation in human 22Rv1 cells assessed as decrease in cyclin C protein expression at 3 uM measured for 36 hrs by DIA-based proteomics analysis; assay type: cell-based
[30] = target: T1, Cyclin-dependent kinase 9; experiment: Induction of CDK9 degradation in human 22Rv1 cells assessed as downregulation of AR protein expression at 3 uM measured for 36 hrs by DIA-based proteomics analysis; assay type: cell-based
[31] = target: T1, Cyclin-dependent kinase 9; experiment: Induction of CDK9 degradation in human 22Rv1 cells assessed as inhibition of Ser2 phosphorylation of RNA Pol II CTD at 0.3 to 3 uM incubated for 24 hrs by immunoblot analysis; assay type: cell-based; settings: dose 0.3-3 µM
[32] = target: T1, Cyclin-dependent kinase 9; experiment: Induction of CDK9 degradation in human 22Rv1 cells assessed as downregulation of MCL1 protein expression at 0.3 to 3 uM incubated for 24 hrs by immunoblot analysis; assay type: cell-based; settings: dose 0.3-3 µM

T1 sequence (P50750 whole entry): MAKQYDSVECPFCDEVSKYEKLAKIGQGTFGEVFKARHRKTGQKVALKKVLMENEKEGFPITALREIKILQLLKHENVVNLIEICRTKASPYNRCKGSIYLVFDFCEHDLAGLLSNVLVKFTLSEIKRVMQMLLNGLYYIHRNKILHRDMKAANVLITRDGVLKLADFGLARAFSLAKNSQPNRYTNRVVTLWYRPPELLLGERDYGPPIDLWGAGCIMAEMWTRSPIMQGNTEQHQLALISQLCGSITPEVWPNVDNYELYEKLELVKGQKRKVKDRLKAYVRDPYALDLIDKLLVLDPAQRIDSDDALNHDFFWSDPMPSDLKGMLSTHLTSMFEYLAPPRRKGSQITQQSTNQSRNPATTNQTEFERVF

Activity [1]: Active
Activity (Cyclin-T1 [2]): Active
Structure (SMILES): CC(C)(C)c1cnc(CSc2cnc(NC(=O)C3CCN(S(=O)(=O)CCNC(=O)CC45CC6CC(CC(C6)C4)C5)CC3)s2)o1

Activity (Cyclin-T1 [3]): < 40%
Activity [4]: < 40%
Structure (SMILES): CC(C)[C@@H]1CC[C@@H](C)C[C@H]1OCC(=O)NCCCOCCS(=O)(=O)N1CCC(C(=O)Nc2ncc(SCc3ncc(C(C)(C)C)o3)s2)CC1

Activity [1]: Active
Activity (Cyclin-T1 [2]): Active
Structure (SMILES): CC(C)(C)OC(=O)NC(=NCCC[C@@H](NC(=O)OC(C)(C)C)C(=O)NCCS(=O)(=O)N1CCC(C(=O)Nc2ncc(SCc3ncc(C(C)(C)C)o3)s2)CC1)NC(=O)OC(C)(C)C

Activity [1]: Active
Activity (Cyclin-T1 [5]): Active
Structure (SMILES): CC(C)[C@@H]1CC[C@@H](C)C[C@H]1OCC(=O)NCCOCCS(=O)(=O)N1CCC(C(=O)Nc2ncc(SCc3ncc(C(C)(C)C)o3)s2)CC1

Activity [1]: Active
Activity (Cyclin-T1 [2]): Active
Structure (SMILES): CC(C)(C)c1cnc(CSc2cnc(NC(=O)C3CCN(S(=O)(=O)CCNC(=O)NC45CC6CC(CC(C6)C4)C5)CC3)s2)o1

Activity [1]: Active
Activity (Cyclin-T1 [2]): Active
Structure (SMILES): CC(C)[C@@H]1CC[C@@H](C)C[C@H]1OCC(=O)NCCN1CCC(C(=O)Nc2ncc(SCc3ncc(C(C)(C)C)o3)s2)CC1

Structure (SMILES): CC(C)(C)c1cnc(CSc2cnc(NC(=O)C3CCNCC3)s2)o1 [BMS-387032]
inhibition (CWR22R [6]): Active
Activity (CWR22R [7]): Active
IC50 (CWR22R [8]): 384 nM
Activity (CWR22R [9]): Active
Activity (CWR22R [10]): Active
Activity (CWR22R [11]): Active

Activity [12]: > 50%
Structure (SMILES): CC(C)[C@@H]1CC[C@@H](C)C[C@H]1OCC(=O)N1CCN(CCS(=O)(=O)N2CCC(C(=O)Nc3ncc(SCc4ncc(C(C)(C)C)o4)s3)CC2)CC1

Activity [13]: Active
Activity (Cyclin-T1 [14]): 40.2%
Activity [16]: Active
Activity [17]: Active
Activity [18]: Active
Activity [19]: Active
Activity [20]: Active
Activity [21]: Active
Activity [22]: Active
Activity [23]: Active
Activity (Cyclin-T1 [24]): Active
Activity [26]: Active
Activity [27]: Active
Activity [28]: Active
Activity [29]: Active
Activity [30]: Active
Activity [31]: Active
Activity [32]: Active
Structure (SMILES): CC(C)(C)c1cnc(CSc2cnc(NC(=O)C3CCN(CC(=O)NCCOCCOCCOCCNc4cccc5c4C(=O)N(C4CCC(=O)NC4=O)C5=O)CC3)s2)o1 (stereo not given)
inhibition (CWR22R [15]): Active
IC50 (CWR22R [8]): 49 nM
inhibition (CWR22R [25]): Active
Activity (CWR22R [9]): Active
Activity (CWR22R [10]): Active
Activity (CWR22R [11]): Active

Activity [1]: Active
Activity (Cyclin-T1 [2]): Active
Structure (SMILES): CC(C)[C@@H]1CC[C@@H](C)C[C@H]1OCC(=O)NCCCCN1CCC(C(=O)Nc2ncc(SCc3ncc(C(C)(C)C)o3)s2)CC1
